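Results reflect a 48-hour exposure of cells in 96-well plates to compound at five concentrations. GI50 = concentration required for 50% inhibition of growth. TGI is the concentration that stops growth completely.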
Assays:
Assay in all cases: growth of human tumour cells (NCI), 48 h
HOP-92 NSCLC = test system: HOP-92 NSCLC
UACC-257 melanoma = test system: UACC-257 melanoma
K-562 leukemia = test system: K-562 leukemia
RPMI-8226 leukemia = test system: RPMI-8226 leukemia
HCC-2998 colon = test system: HCC-2998 colon
MDA-MB-435 = test system: MDA-MB-435
SW-620 colon = test system: SW-620 colon
NCI-H460 lung = test system: NCI-H460 lung
KM12 colon = test system: KM12 colon
MCF7 breast = test system: MCF7 breast
T-47D breast = test system: T-47D breast
SN12C renal = test system: SN12C renal
CAKI-1 renal = test system: CAKI-1 renal
NCI-H522 lung = test system: NCI-H522 lung
SR leukemia = test system: SR leukemia
786-0 renal = test system: 786-0 renal
PC-3 prostate = test system: PC-3 prostate
HCT-15 colon = test system: HCT-15 colon
NCI-H23 lung = test system: NCI-H23 lung
UO-31 renal = test system: UO-31 renal
A498 renal = test system: A498 renal
HT29 colon = test system: HT29 colon
MDA-MB-231 breast = test system: MDA-MB-231 breast
HOP-62 NSCLC = test system: HOP-62 NSCLC
OVCAR-4 ovarian = test system: OVCAR-4 ovarian
OVCAR-8 ovarian = test system: OVCAR-8 ovarian

`Cc1cc(=O)oc2cc(OCCCOc3ccc(/C=C/C(=O)Nc4ccccc4N)cc3)ccc12` was tested, and the GI50 (HOP-92 NSCLC) was 3.91 µM, the TGI (HOP-92 NSCLC) was > 100 µM and the GI50 (UACC-257 melanoma) was 3.24 µM. For the same compound, the TGI (UACC-257 melanoma) was > 100 µM, the GI50 (K-562 leukemia) was 0.817 µM and the TGI (K-562 leukemia) was > 100 µM. It also gave a GI50 (RPMI-8226 leukemia) of 0.276 µM, a TGI (RPMI-8226 leukemia) of 2.35 µM and a GI50 (HCC-2998 colon) of 3.17 µM. For the same compound, the TGI (HCC-2998 colon) was > 100 µM, the GI50 (MDA-MB-435) was 4.42 µM and the TGI (MDA-MB-435) was > 100 µM. For the same compound, the GI50 (SW-620 colon) was 3.6 µM, the TGI (SW-620 colon) was > 100 µM and the GI50 (NCI-H460 lung) was 1.79 µM. For the same compound, the TGI (NCI-H460 lung) was > 100 µM, the GI50 (KM12 colon) was 3.9 µM and the TGI (KM12 colon) was > 100 µM. The GI50 (MCF7 breast) was 0.702 µM, the TGI (MCF7 breast) was > 100 µM and the GI50 (T-47D breast) was 0.749 µM. The TGI (T-47D breast) was > 100 µM, the GI50 (SN12C renal) was 2.22 µM and the TGI (SN12C renal) was > 100 µM. For the same compound, the GI50 (CAKI-1 renal) was 3.38 µM, the TGI (CAKI-1 renal) was > 100 µM and the GI50 (NCI-H522 lung) was 2.79 µM. The TGI (NCI-H522 lung) was > 100 µM, the GI50 (SR leukemia) was 1.81 µM and the TGI (SR leukemia) was > 100 µM. The GI50 (786-0 renal) was 3.13 µM, the TGI (786-0 renal) was > 100 µM and the GI50 (PC-3 prostate) was 3.07 µM. The TGI (PC-3 prostate) was > 100 µM, the GI50 (HCT-15 colon) was 2.4 µM and the TGI (HCT-15 colon) was > 100 µM. For the same compound, the GI50 (NCI-H23 lung) was 3.64 µM, the TGI (NCI-H23 lung) was > 100 µM and the GI50 (UO-31 renal) was 0.775 µM. For the same compound, the TGI (UO-31 renal) was > 100 µM, the GI50 (A498 renal) was 2.34 µM and the TGI (A498 renal) was 6.7 µM. The GI50 (HT29 colon) was 4.8 µM, the TGI (HT29 colon) was > 100 µM and the GI50 (MDA-MB-231 breast) was 3.33 µM. The TGI (MDA-MB-231 breast) was > 100 µM, the GI50 (HOP-62 NSCLC) was 4.93 µM and the TGI (HOP-62 NSCLC) was > 100 µM. For the same compound, the GI50 (OVCAR-4 ovarian) was 2.82 µM, the TGI (OVCAR-4 ovarian) was > 100 µM and the GI50 (OVCAR-8 ovarian) was 4.18 µM. The TGI (OVCAR-8 ovarian) was > 100 µM.

— PubChem BioAssay (NCI)
